Patent publication US8680269B2, “Pesticidal compositions” (Dow AgroSciences, LLC., priority 2009, dated 2014)

Tests used:
Type in all cases: in vivo
[1] = tested on: beet armyworm (BAW; Spodoptera exigua); experiment: Insecticidal test for beet armyworm, 128-well diet tray assay; conditions: 144 h, 50 μg/cm2 on artificial diet, second instar larvae, six days at 25° C.
Outline: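 Second-instar larvae, three to five per well, fed on artificial diet surface-treated with 50 μg/cm^2 compound (applied in 90:10 acetone-water, dried). Held 6 days at 25 °C, 14:10 light-dark; percent mortality scored per well and averaged over eight wells.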

[2] = tested on: corn earworm (CEW; Helicoverpa zea); experiment: Insecticidal test for corn earworm, 128-well diet tray assay; conditions: 144 h, 50 μg/cm2 on artificial diet, second instar larvae, six days at 25° C.
Outline: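 Second-instar H. zea larvae, three to five per well, on artificial diet surface-treated with 50 μg/cm^2 compound (90:10 acetone-water, dried), eight wells per compound. Held 6 days at 25° C, 14:10 light-dark; percent mortality averaged over wells.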

[3] = tested on: green peach aphid (Myzus persicae); experiment: Insecticidal test for green peach aphid in foliar spray assay; conditions: 72 h, 200 ppm foliar spray on cabbage seedlings, graded after three days, Abbott corrected % control, read-out: Mortality GPA 200 ppm
Method: Cabbage seedlings grown in 3-inch pots, with 2-3 small (3-5 cm) true leaves, were used as test substrate. The seedlings were infested with 20-50 green peach aphids (wingless adult and nymph) one day prior to chemical application. Four pots with individual seedlings were used for each treatment. Compounds (2 mg) were dissolved in 2 mL of acetone/methanol (1:1) solvent, forming stock solutions of 1000 ppm. The stock solutions were diluted 5× with 0.025% Tween 20 in H2O to obtain the test solution at 200 ppm. A hand-held Devilbiss sprayer was used for spraying a solution to both sides of cabbage leaves until runoff. Reference plants (solvent check) were sprayed with the diluent only. Treated plants were held in a holding room for three days at approximately 25° C. and 40% relative humidity (RH) prior to grading. Evaluation was conducted by counting the number of live aphids per plant under a microscope. Insecticidal activity data, measured by using Abbott's correction formula, are presented in Table 2: Corrected % Control=100*(X−Y)/X • where X=No. of live aphids on solvent check plants • Y=No. of live aphids on treated plants

SMILES	mortality at 50 µg/cm2 [1] [%]	mortality at 50 µg/cm2 [2] [%]	mortality at 200 ppm [3] [%]
CC(=O)N(C)c1ccc(NC(=S)N/N=C/c2ccc(-c3ncn(-c4ccc(OC(F)(F)F)cc4)n3)cc2)cc1 [Compound 40]	50 to 100	50 to 100	< 80
CCOc1ccc(NC(=S)N/N=C/c2ccc(-c3ncn(-c4ccc(OC(F)(F)F)cc4)n3)cc2)cc1 [Compound 58]	50 to 100	50 to 100	< 80
CCOC(=O)CNC(=S)N/N=C/c1ccc(-c2ncn(-c3ccc(OC(F)(F)F)cc3)n2)cc1 [Compound 30]	50 to 100	50 to 100	< 80
Cc1cccc(C)c1NC(=S)N/N=C/c1ccc(-c2ncn(-c3ccc(OC(F)(F)C(F)(F)F)cc3)n2)cc1 [Compound 97]	50 to 100	50 to 100	< 80
FC(F)(F)Oc1ccc(-n2cnc(-c3ccc(/C=N/NC(=S)Nc4c(Cl)cccc4Cl)cc3)c2)cc1 [Compound 68]	50 to 100	50 to 100	< 80
FC(F)(F)Oc1ccc(-n2cnc(-c3ccc(/C=N/NC(=S)NCCC4=CCCCC4)cc3)n2)cc1 [Compound 20]	50 to 100	50 to 100	< 80
CNC(=S)N/N=C/c1ccc(-c2ncn(-c3ccc(C(F)(F)F)cc3)n2)cc1 [Compound 15]	50 to 100	50 to 100	< 80
FC(F)(F)Oc1ccc(-n2cnc(-c3ccc(/C=N/NC(=S)Nc4ccccc4OC(F)(F)F)cc3)n2)cc1 [Compound 66]	50 to 100	50 to 100	< 80
CC(=O)Nc1ccc(NC(=S)N/N=C/c2ccc(-c3ncn(-c4ccc(OC(F)(F)F)cc4)n3)cc2)cc1 [Compound 41]	50 to 100	50 to 100	< 80
COc1ccc(NC(=S)N/N=C/c2ccc(-n3cnc(-c4ccc(C(F)(F)F)cc4)c3)cc2)cc1 [Compound 69]	50 to 100	50 to 100	< 80
FC(F)(F)Oc1ccc(-n2cnc(-c3ccc(/C=N/NC(=S)NCCOc4ccccn4)cc3)n2)cc1 [Compound 17]	50 to 100	50 to 100	< 80
COc1ccc(NC(=O)N/N=C/c2ccc(-c3ncn(-c4ccc(OC(F)(F)F)cc4)n3)cc2)c(C)c1 [Compound 119]	50 to 100	50 to 100	< 80
CN(C)c1cccc(CNC(=S)N/N=C/c2ccc(-c3ncn(-c4ccc(OC(F)(F)F)cc4)n3)cc2)c1 [Compound 38]	50 to 100	50 to 100	< 80
CN(C)CCCNC(=S)N/N=C/c1ccc(-c2ncn(-c3ccc(OC(F)(F)F)cc3)n2)cc1 [Compound 19]	< 50	< 50	< 80
Cc1ccccc1NC(=S)N/N=C/c1ccc(-c2ncn(-c3ccc(OC(F)(F)F)cc3)n2)cc1 [Compound 71]	50 to 100	50 to 100	< 80
FC(F)(F)Oc1ccc(-n2cnc(-c3ccc(/C=N/NC(=S)Nc4ccccc4Cl)cc3)n2)cc1 [Compound 54]	< 50	< 50	< 80
FC(F)(F)Oc1ccc(-n2cnc(-c3ccc(/C=N/NC(=S)NCCN4CCOCC4)cc3)n2)cc1 [Compound 16]	50 to 100	50 to 100	< 80
COc1ccc(NC(=S)N/N=C/c2ccc(-c3ncn(-c4ccc(OC(F)(F)F)cc4)n3)cc2)c(C(F)(F)F)c1 [Compound 51]	50 to 100	50 to 100	< 80

SMILES	mortality at 50 µg/cm2 [1] [%]	mortality at 50 µg/cm2 [2] [%]	mortality at 200 ppm [3] [%]
FC(F)(F)Oc1ccc(-n2cnc(-c3ccc(/C=N/NC(=S)Nc4ccc(Cl)cn4)cc3)n2)cc1 [Compound 59]	< 50	< 50	< 80
FC(F)(F)Oc1ccc(-n2cnc(-c3ccc(/C=N/NC(=S)NC4CCCCC4)cc3)n2)cc1 [Compound 25]	50 to 100	50 to 100	< 80
CS(=O)(=O)c1ccccc1NC(=S)N/N=C/c1ccc(-c2ncn(-c3ccc(OC(F)(F)F)cc3)n2)cc1 [Compound 52]	50 to 100	50 to 100	< 80
CN(C)c1ccc(NC(=S)N/N=C/c2ccc(-c3ncn(-c4ccc(OC(F)(F)C(F)(F)F)cc4)n3)cc2)cc1 [Compound 36]	50 to 100	50 to 100	< 80
COCCNC(=S)N/N=C/c1ccc(-c2ncn(-c3ccc(OC(F)(F)F)cc3)n2)cc1 [Compound 18]	50 to 100	50 to 100	< 80
FC(F)(F)Oc1ccc(-n2cnc(-c3ccc(/C=N/NC(=S)Nc4ccc(Cl)cc4)cc3)n2)cc1 [Compound 56]	50 to 100	50 to 100	< 80
COc1ccc(NC(=S)N/N=C/c2ccc(-c3ncn(-c4ccc(OC(F)(F)F)cc4)n3)cc2)c(C)c1 [Compound 46]	50 to 100	50 to 100	< 80
CN(C)c1ncc(NC(=S)N/N=C/c2ccc(-c3ncn(-c4ccc(OC(F)(F)F)cc4)n3)cc2)cn1 [Compound 43]	50 to 100	50 to 100	< 80
FC(F)(F)Oc1ccc(-n2cnc(-c3ccc(/C=N/NC(=S)Nc4ccc(C(F)(F)F)cc4)cc3)n2)cc1 [Compound 32]	< 50	< 50	< 80
FC(F)(F)c1ccc(-n2cnc(-c3ccc(/C=N/NC(=S)NCCc4ccccn4)cc3)n2)cc1 [Compound 5]	50 to 100	50 to 100	< 80
O=C(NC(=S)N/N=C/c1ccc(-c2ncn(-c3ccc(OC(F)(F)F)cc3)n2)cc1)c1ccc([N+](=O)[O-])cc1 [Compound 31]	< 50	< 50	< 80
FC(F)(F)Oc1ccc(-n2cnc(-c3ccc(/C=N/NC(=S)NC4CC4)cc3)n2)cc1 [Compound 23]	50 to 100	50 to 100	< 80
FC(F)(F)C(F)(F)Oc1ccc(-n2cnc(-c3ccc(/C=N/NC(=S)NCCc4ccccn4)cc3)n2)cc1 [Compound 9]	50 to 100	50 to 100	< 80
FC(F)(F)Oc1ccc(-n2cnc(-c3ccc(/C=N/NC(=S)NCc4ccc(Cl)cc4)cc3)n2)cc1 [Compound 34]	50 to 100	50 to 100	< 80
CCc1ccccc1NC(=S)N/N=C/c1ccc(-c2ncn(-c3ccc(OC(F)(F)F)cc3)n2)cc1 [Compound 62]	50 to 100	50 to 100	< 80
COc1ccc(NC(=S)N/N=C/c2ccc(-c3cn(-c4ccc(OC(F)(F)F)cc4)cn3)cc2)cc1 [Compound 67]	50 to 100	50 to 100	< 80
Fc1ccccc1CNC(=S)N/N=C/c1ccc(-c2ncn(-c3ccc(OC(F)(F)F)cc3)n2)cc1 [Compound 22]	50 to 100	50 to 100	< 80
FC(F)(F)Oc1ccc(-n2cnc(-c3ccc(/C=N/NC(=S)NCCc4ccccn4)cc3)n2)cc1 [Compound 6]	50 to 100	50 to 100	< 80
